Values of other authors as cited in US8580300B2, “Pharmaceutical formulation for treating the upper digestive tract” (Dr. Falk Pharma GmbH, priority 2008, dated 2013).

Conditions: budesonide resorbed in the stomach/digestive tract

share of the absorbed budesonide metabolised by the first-pass effect: 90%
Structure (SMILES): CCCC1O[C@@H]2C[C@H]3[C@@H]4CCC5=CC(=O)C=C[C@]5(C)[C@H]4[C@@H](O)C[C@]3(C)[C@]2(C(=O)CO)O1 (stereo partly drawn) [budesonide, 16,17-(butylidenebis(oxy))-11,21-dihydroxy-(11-β,16-α)-pregna-1,4-diene-3,20-dione]
